Measured values published in patent publication US20180074077A1, “A METHOD FOR MEASURING THE PROTEASE ACTIVITY OF FACTOR D OF THE ALTERNATIVE COMPLEMENT PATHWAY” (priority 2015, published 2018).

Experiments:
[1] = target: T1, Factor D (Homo sapiens, UniProt P00746); experiment: BLI biosensor assay of Factor D cleavage of Factor B, anti-Bb antibody binding; format: biochemical
T1 construct: purchased COMPTECH (Tyler Tex.)
Protocol: All measurements were recorded on an OCTET® RED System set to the advanced quantitation mode. The biosensors were SA-Streptavidin DIP AND READ™ configured to a 96-well microplate format (FORTEBIO). All loading volumes were 200 μl.
Eight streptavidin-coated biosensors were incubated with bio-C3b (10 μg/ml), and Factor B (0.6 μM) in Kinetics Buffer with 1 mM NiCl2 for 6 minutes.
To form bio-C3b/Bb, each biosensor was loaded with a mixture of BioC3b (10 μg/mL), factor B (600 nM) and Ni^2+ (1 mM) in Kinetics Buffer. […] The incubation time was 2 minutes.
The presence of Bb on the biosensor was detected by loading the biosensors with 55 nM of an anti-Bb antibody (Quidel, A227) and 55 nM Goat anti-mouse secondary antibody in Kinetics Buffer. The incubation time was 2 minutes.
From time 0 to about 360 seconds (˜6 minutes), the 269 kDa bio-C3b/Factor B complex formed on the streptavidin coated biosensor. […] From about 360 to about 480 seconds (˜2 minutes), Factor D cleaved Factor B into fragments Ba and Bb. […] The binding of the 300 kDa primary and secondary antibody complex to the Bb fragment was recorded as a positive wavelength shift from about 600 to 720 seconds (˜2 minutes).

[2] = test system: C5 convertase; experiment: C5 convertase activity on bio-C3b spheres, C5a measured with ECL assay; format: biochemical; details: for ECL signal (amount of C5a produced by C5 convertase): C5 100 nM, 60 min
Protocol: The bio-C3b binding to streptavidin was performed in a 2.0 ml micro-centrifuge tube. Two hundred and forty μg of SPHEROTECH beads, 0.3 mm diameter. Streptavidin coated spheres were first washed by centrifugation with 300 μL of 10 mM Tris, pH 8, and then resuspended in 200 μL of 10 mM Tris, pH 8. The spheres were incubated with bio-C3b or C3b at a concentration of 320 nM. Spheres were suspended by gentle shaking at 1350 RPM for 20 minutes at room temperature, and collected by centrifugation at 16 RCF for 10 minutes. The residual supernatant was removed and the beads were then washed to remove residual unbound bio-C3b.
C5 convertase was formed on the spheres by incubating the bio-C3b spheres with a Convertase Solution that included components of the AP, a divalent cation and buffer. The Convertase Solution consisted of Factor D, (10 nM), Factor B (400 nM), and NiCl2 (200 μM) in 10 mM Tris, pH 8.0. The spheres were suspended by gentle shaking at 1350 RPM for 20 minutes at 37° C. The spheres were centrifuged at 16×g (RCF) for 10 minutes, the supernatant is removed, and the spheres are resuspended in 1.2 ml of 10 mM Tris pH 8, 1 mM EDTA to a final concentration of 200 μg/ml.
Formation of C5a was accomplished by incubating C5, and the spheres in a Reaction Solution that included a divalent cation. The Reaction Solution was prepared by transferring to a microplate well: (i) 2 μg of spheres with C5 convertase in 10 μl of the Convertase Solution; (ii) 20 μL of a 500 μM NiCl2 solution; and (iii) 20 μL of a 250 nM solution of C5 (5 pmoles). […] Following the incubation, the reaction was stopped by adding 10 μL of a 500 mM EDTA in 10 mM Tris, pH=8.0; (Total Volume=60 μl).
The amount of C5a in the Reaction Solution was measured with an Elisa-like assay, similar to an ELISA. The neo-epitope anti-C5a antibody, BNJ383, captured soluble C5a, binding it to a well in a microplate. BNJN383 has a high affinity for C5a but a low affinity for C5. The detection reagent was a mouse anti-C5a antibody that binds the C5a captured on the plate, and a SULFO-TAG™ modified anti-mouse secondary antibody that bound the mouse antibody, and generated an ECL signal.
To wells of a high binding 96-well microplate (MSD Catalog No. L15XB-3) was added BNJ383 (0.3 pmoles,) 2 μg/mL in 25 μL of a carbonate-bicarbonate buffer at pH 9.4. The microplate was sealed and incubated at 37′C for 60 minutes. […]
The wells were sealed with a foil seal and incubated in the dark for 30 minutes. […] One hundred and fifty μL of 2×MSD Read Buffer containing tripropylamine as an electron carrier was added to the wells using a negative pipetting technique. The microplate was read on an MSD imager to measure the ECL signal generated by the SULFO-TAG™ affixed to the goat secondary antibody. […]

T1 sequence (P00746 26-253): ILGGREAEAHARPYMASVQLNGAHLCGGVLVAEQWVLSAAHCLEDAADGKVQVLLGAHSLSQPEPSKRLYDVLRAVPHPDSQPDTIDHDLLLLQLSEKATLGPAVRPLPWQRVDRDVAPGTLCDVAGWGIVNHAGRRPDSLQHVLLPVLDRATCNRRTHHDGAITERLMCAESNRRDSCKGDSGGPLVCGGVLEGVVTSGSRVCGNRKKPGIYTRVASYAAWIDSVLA

Row | Molecule | Effect on Factor D activity (in words) ([1]; DCIC 23 μM and 35 μM) | Inhibition of Factor D (in words) ([1]; DCIC 178 μM, 267 μM and 400 μM) | Effect on convertase activity (in words) ([2]; OmCI 50 nM) | ECL signal (amount of C5a produced by C5 convertase) ([2]; OmCI 50 nM) | drop of ECL signal ([2]; OmCI 100 nM) [fold] | ECL signal (amount of C5a produced by C5 convertase) ([2]; OmCI 100 nM)
1 | O=c1oc(Cl)c(Cl)c2ccccc12 [DCIC, 3,4-Dichloroisocoumarin] | minimal effect | maximally inhibited | – | – | – | –
2 | OmCI: tick saliva complement inhibitor, a C5 binding protein | – | – | essentially no effect | 40,000 | 8 | 5000
